According to ChEMBL document CHEMBL1201862, “PubChem BioAssay data set” (2004):
The source made the active and inactive calls.

Columns and labels:
Kallikrein-7 = Kallikrein-7 (Homo sapiens, UniProt P49862); experiment: Fluorescence Intensity-based biochemical primary high throughput dose response assay to identify activators of kallikrein-7 (K7) zymogen.
CAAX prenyl protease 1 = CAAX prenyl protease 1 (Saccharomyces cerevisiae S288c, UniProt P47154); experiment: yeast CAAX protease Ste24 inhibition – biochemical, S. cerevisiae, plate reader, cherry-pick, dose response (AID 488815)
Trypsin = Trypsin (Sus scrofa, UniProt P00761); experiment: trypsin protease activity blockade – biochemical, quenched peptide fluorescence, cherry-pick, selectivity assay for Rce1 protease inhibitor project, dose response (AID 488789)
CAAX prenyl protease 2 = molecular target: T1, CAAX prenyl protease 2 (Homo sapiens, UniProt Q9Y256); experiment: inhibition of Ras-converting CAAX protease Rce1 – biochemical, yeast membranes, quenched-peptide fluorescence, cherry-pick, dose response (AID 588849)
T1 sequence (Q9Y256 whole entry): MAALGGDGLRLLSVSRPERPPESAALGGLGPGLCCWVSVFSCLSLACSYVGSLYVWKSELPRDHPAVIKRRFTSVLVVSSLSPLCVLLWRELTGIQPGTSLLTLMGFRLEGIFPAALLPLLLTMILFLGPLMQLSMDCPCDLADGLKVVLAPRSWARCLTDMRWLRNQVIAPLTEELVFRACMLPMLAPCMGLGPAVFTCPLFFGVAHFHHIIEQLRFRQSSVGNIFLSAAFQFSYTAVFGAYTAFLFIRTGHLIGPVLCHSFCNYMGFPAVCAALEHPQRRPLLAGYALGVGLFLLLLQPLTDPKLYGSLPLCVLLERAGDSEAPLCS

Ion channel NompC = Ion channel NompC (Danio rerio, UniProt Q7T1G6); experiment: Dose response cell-based high-throughput screening assay for agonists of the transient receptor potential channel N1 (TRPN1). [Related pubchem assays (depositor defined):AID1424, AID1448]; format: functional
Mucolipin-3 = molecular target: T2, Mucolipin-3 (Homo sapiens, UniProt Q8TDD5); experiment: Fluorescence counterscreen assay for […] agonists: dose response cell-based high-throughput screening assay to identify agonists of the transient receptor potential channel ML3 (TRPML3). [Related pubchem assays: 1424, 1448 ]; format: functional
T2 sequence (Q8TDD5 whole entry): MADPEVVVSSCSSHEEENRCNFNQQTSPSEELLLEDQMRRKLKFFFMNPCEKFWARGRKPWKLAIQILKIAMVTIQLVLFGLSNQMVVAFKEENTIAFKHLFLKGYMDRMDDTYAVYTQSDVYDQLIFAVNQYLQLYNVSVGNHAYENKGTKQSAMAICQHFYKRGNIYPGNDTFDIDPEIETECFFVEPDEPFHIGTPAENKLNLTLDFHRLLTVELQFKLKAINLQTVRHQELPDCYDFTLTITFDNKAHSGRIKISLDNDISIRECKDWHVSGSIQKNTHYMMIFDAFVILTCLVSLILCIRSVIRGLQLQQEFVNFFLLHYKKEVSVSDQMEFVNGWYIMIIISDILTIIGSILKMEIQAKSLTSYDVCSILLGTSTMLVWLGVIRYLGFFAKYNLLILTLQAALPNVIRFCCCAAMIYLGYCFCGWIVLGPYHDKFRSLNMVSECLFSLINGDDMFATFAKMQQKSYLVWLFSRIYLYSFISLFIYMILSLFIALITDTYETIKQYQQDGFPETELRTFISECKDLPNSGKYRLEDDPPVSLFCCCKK

Caspase-3 = molecular target: T3, Caspase-3 (Homo sapiens, UniProt P42574); format: functional;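 also: Dose-response selectivity test against caspase-3 for candidate inhibitors of sentrin-specific proteases (SENPs)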
T3 sequence (P42574 whole entry): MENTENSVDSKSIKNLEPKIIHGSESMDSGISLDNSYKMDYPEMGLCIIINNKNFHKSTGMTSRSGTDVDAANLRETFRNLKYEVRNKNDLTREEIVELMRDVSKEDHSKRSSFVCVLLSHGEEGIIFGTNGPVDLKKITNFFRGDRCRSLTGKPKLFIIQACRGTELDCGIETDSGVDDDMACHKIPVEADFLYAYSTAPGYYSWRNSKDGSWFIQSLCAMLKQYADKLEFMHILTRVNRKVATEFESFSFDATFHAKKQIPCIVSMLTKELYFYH

Large T antigen = Large T antigen (Simian virus 40, UniProt P03070); format: functional, Betapolyomavirus macacae;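 also: Confirmatory-stage PubChem screen for compounds that inhibit SV40 T antigen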
[1] = molecular target: T4, Sentrin-specific protease 7 (Homo sapiens, UniProt Q9BQF6); format: functional;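 also: Luminescence-based dose-response confirmation of ultra-high-throughput screening hits, measuring inhibition of SENP7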
T4 sequence (Q9BQF6 whole entry): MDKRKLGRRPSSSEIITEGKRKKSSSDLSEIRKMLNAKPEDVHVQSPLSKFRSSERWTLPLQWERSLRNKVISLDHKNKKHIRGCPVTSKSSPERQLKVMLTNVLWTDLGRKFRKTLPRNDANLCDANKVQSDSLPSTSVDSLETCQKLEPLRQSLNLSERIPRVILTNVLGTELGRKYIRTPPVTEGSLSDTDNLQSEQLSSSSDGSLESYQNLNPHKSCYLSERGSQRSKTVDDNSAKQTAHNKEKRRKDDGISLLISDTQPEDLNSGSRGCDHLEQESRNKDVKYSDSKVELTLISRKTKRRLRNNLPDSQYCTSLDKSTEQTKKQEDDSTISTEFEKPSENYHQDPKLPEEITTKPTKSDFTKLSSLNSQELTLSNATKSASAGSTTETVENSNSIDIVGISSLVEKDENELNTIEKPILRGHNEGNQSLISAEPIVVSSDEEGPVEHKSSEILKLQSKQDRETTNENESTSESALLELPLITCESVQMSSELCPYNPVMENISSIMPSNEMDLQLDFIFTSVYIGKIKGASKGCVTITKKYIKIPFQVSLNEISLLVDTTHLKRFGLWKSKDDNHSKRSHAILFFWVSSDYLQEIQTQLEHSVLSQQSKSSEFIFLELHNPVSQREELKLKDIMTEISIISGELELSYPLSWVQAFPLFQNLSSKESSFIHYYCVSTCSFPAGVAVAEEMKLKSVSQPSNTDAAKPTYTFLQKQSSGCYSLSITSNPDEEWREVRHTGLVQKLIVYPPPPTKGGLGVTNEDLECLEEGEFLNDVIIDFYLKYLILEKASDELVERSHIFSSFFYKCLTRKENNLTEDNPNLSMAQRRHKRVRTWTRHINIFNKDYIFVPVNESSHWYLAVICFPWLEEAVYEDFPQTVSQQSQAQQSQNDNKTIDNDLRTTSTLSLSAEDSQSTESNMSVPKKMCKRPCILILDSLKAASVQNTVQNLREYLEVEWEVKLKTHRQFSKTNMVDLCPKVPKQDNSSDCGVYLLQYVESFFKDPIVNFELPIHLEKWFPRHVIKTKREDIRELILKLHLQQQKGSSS

[2] = molecular target: T5, Sentrin-specific protease 8 (Homo sapiens, UniProt Q96LD8); format: functional;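 also: luminescence read-out of SENP8 inhibition, dose-response confirmation following an ultra-high-throughput screen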
T5 sequence (Q96LD8 whole entry): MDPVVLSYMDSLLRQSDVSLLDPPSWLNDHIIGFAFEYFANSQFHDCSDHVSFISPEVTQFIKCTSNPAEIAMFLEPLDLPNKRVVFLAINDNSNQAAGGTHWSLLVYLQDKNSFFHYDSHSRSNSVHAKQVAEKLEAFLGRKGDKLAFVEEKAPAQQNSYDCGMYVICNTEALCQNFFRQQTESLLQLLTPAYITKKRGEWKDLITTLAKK

[3] = molecular target: T6, Sentrin-specific protease 6 (Homo sapiens, UniProt Q9GZR1); format: functional;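 also: Luminescence-based dose-response confirmatory assay of SENP6 inhibition, following up an ultra-high-throughput screen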
T6 sequence (Q9GZR1 whole entry): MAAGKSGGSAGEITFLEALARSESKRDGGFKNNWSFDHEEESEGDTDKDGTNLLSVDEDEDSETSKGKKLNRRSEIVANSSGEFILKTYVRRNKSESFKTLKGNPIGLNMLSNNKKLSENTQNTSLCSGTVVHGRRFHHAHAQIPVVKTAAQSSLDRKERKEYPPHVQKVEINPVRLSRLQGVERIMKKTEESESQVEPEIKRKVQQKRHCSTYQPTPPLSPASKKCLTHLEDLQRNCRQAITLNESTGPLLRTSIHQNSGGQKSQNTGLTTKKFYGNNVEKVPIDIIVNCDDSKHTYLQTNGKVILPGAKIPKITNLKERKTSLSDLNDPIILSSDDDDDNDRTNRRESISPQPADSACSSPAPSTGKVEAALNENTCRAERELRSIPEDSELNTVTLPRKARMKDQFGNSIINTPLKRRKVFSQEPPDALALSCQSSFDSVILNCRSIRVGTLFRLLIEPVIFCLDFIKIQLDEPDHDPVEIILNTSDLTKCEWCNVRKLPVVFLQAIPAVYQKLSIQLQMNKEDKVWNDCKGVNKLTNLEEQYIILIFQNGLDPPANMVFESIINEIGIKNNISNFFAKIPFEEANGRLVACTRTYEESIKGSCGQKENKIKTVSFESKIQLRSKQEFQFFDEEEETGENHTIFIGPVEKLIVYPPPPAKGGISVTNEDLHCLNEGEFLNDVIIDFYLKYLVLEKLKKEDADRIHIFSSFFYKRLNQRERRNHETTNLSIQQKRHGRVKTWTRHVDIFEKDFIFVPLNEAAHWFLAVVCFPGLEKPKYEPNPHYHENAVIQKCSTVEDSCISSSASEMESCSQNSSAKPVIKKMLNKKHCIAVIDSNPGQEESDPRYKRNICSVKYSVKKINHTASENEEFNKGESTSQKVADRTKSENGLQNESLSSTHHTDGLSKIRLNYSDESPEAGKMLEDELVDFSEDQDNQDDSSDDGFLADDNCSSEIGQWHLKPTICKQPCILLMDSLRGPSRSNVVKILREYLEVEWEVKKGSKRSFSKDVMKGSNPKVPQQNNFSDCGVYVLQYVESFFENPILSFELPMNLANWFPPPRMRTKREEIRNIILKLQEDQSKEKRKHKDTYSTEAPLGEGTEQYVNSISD

[4] = molecular target: T7, G-protein coupled receptor 35 (Homo sapiens, UniProt Q9HC97); experiment: SAR analysis of Antagonists of the GPR35 Receptor using an Image-Based Assay - Set 4. [Related pubchem assays (depositor defined):[…]]; format: functional
Cannabinoid receptor 2 [5] = molecular target: T8, Cannabinoid receptor 2 (Homo sapiens, UniProt P34972); experiment: SAR analysis of antagonists of the Cannabinoid Receptor 2 using an Image-Based Assay - Set 2. [Related pubchem assays (depositor defined):AID1961, AID1965]; format: functional
Cannabinoid receptor 2 [6] = molecular target: T8, Cannabinoid receptor 2; experiment: SAR analysis of agonists of the Cannabinoid Receptor 2 using an Image-Based Assay - Set 2. [Related pubchem assays (depositor defined):AID1961, AID1965]; format: functional
Cannabinoid receptor 1 [7] = molecular target: T9, Cannabinoid receptor 1 (Homo sapiens, UniProt P21554); experiment: SAR analysis of agonists of the Cannabinoid Receptor 1 using an Image-Based Assay - Set 3. [Related pubchem assays (depositor defined):AID1961, AID1965]; format: functional
[8] = molecular target: G-protein coupled receptor 55 (Homo sapiens, UniProt Q9Y2T6); experiment: SAR analysis of selective Agonists of GPR55 using an Image-Based Assay - Set 2. [Related pubchem assays (depositor defined):AID1961, AID1965]; format: functional
Cannabinoid receptor 1 [9] = molecular target: T9, Cannabinoid receptor 1; experiment: SAR analysis of antagonists of the Cannabinoid Receptor 1 using an Image-Based Assay - Set 3. [Related pubchem assays (depositor defined):AID1961, AID1965]; format: functional
[10] = molecular target: T7, G-protein coupled receptor 35; experiment: SAR analysis of Agonists of the GPR35 Receptor using an Image-Based Assay - Set 3. [Related pubchem assays (depositor defined):AID1961, AID1965]; format: functional
Tumor necrosis factor = Tumor necrosis factor (Homo sapiens, UniProt P01375); experiment: analog potency on TNFa NF-kB signaling – cell-based, revised, SAR follow-up (AID 2337); format: functional
HEK293 = experiment: cells; conditions: Homo sapiens;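 also: cells exposed to compound for 14 hours overnight before viability readout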

T9 sequence (P21554 whole entry): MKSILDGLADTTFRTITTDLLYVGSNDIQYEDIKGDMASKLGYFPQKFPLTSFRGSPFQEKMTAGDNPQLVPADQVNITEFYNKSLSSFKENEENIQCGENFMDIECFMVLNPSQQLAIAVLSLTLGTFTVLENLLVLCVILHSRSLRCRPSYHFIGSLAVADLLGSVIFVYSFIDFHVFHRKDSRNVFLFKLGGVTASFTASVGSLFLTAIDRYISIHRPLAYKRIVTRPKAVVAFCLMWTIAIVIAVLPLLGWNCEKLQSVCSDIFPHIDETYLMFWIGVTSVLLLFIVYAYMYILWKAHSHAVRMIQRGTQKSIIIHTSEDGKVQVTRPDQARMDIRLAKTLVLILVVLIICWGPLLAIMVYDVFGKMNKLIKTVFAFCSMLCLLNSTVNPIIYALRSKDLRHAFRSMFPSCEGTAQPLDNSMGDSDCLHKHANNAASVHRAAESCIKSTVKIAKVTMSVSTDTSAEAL
T7 sequence (Q9HC97 whole entry): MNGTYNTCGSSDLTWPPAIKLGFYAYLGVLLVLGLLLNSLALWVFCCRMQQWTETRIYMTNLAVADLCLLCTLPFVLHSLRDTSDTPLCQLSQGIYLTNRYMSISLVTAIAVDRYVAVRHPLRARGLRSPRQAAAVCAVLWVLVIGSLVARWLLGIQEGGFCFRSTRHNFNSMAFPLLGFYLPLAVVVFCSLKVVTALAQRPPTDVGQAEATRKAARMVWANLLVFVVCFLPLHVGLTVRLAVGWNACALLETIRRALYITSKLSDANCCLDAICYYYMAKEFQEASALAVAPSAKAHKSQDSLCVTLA
T8 sequence (P34972 whole entry): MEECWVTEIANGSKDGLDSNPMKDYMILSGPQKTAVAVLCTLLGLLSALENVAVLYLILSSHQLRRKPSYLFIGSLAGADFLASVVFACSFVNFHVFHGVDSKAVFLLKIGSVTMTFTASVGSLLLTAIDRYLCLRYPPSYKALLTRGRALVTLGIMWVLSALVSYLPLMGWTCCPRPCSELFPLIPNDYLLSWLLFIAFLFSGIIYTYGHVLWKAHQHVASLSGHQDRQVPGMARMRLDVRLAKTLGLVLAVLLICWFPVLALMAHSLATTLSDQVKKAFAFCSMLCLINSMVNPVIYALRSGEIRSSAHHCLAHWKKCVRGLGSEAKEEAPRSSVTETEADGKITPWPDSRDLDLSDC
G-protein coupled receptor 55, sequence (Q9Y2T6 whole entry): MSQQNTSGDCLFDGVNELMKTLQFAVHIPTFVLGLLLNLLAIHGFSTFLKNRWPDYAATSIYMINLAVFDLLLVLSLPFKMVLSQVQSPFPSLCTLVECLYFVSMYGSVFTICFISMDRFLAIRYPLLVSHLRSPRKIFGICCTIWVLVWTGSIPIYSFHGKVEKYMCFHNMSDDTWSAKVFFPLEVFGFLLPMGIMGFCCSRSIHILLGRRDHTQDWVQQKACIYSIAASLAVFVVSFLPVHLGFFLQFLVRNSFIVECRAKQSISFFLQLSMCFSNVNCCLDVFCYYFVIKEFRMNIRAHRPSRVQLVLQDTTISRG
CAAX prenyl protease 1, sequence (P47154 whole entry): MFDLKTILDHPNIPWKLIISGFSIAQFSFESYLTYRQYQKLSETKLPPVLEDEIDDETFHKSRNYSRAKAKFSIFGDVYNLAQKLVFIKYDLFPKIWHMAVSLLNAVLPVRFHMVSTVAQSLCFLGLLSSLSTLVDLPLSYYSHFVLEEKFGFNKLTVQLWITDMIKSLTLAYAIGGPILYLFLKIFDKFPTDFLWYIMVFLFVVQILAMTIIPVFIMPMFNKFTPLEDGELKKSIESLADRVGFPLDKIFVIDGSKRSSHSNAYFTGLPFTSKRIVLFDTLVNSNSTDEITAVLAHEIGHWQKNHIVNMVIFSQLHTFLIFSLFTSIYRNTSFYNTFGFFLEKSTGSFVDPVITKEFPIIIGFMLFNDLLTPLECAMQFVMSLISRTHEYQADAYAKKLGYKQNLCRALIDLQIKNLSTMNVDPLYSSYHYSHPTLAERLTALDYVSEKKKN
Trypsin, sequence (P00761 whole entry): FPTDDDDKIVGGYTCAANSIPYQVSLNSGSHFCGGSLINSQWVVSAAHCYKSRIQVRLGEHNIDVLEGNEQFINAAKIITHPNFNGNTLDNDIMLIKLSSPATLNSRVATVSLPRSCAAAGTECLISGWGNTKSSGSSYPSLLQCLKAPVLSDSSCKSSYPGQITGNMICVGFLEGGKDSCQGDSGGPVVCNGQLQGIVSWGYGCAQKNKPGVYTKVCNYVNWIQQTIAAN
Ion channel NompC, sequence (Q7T1G6 whole entry): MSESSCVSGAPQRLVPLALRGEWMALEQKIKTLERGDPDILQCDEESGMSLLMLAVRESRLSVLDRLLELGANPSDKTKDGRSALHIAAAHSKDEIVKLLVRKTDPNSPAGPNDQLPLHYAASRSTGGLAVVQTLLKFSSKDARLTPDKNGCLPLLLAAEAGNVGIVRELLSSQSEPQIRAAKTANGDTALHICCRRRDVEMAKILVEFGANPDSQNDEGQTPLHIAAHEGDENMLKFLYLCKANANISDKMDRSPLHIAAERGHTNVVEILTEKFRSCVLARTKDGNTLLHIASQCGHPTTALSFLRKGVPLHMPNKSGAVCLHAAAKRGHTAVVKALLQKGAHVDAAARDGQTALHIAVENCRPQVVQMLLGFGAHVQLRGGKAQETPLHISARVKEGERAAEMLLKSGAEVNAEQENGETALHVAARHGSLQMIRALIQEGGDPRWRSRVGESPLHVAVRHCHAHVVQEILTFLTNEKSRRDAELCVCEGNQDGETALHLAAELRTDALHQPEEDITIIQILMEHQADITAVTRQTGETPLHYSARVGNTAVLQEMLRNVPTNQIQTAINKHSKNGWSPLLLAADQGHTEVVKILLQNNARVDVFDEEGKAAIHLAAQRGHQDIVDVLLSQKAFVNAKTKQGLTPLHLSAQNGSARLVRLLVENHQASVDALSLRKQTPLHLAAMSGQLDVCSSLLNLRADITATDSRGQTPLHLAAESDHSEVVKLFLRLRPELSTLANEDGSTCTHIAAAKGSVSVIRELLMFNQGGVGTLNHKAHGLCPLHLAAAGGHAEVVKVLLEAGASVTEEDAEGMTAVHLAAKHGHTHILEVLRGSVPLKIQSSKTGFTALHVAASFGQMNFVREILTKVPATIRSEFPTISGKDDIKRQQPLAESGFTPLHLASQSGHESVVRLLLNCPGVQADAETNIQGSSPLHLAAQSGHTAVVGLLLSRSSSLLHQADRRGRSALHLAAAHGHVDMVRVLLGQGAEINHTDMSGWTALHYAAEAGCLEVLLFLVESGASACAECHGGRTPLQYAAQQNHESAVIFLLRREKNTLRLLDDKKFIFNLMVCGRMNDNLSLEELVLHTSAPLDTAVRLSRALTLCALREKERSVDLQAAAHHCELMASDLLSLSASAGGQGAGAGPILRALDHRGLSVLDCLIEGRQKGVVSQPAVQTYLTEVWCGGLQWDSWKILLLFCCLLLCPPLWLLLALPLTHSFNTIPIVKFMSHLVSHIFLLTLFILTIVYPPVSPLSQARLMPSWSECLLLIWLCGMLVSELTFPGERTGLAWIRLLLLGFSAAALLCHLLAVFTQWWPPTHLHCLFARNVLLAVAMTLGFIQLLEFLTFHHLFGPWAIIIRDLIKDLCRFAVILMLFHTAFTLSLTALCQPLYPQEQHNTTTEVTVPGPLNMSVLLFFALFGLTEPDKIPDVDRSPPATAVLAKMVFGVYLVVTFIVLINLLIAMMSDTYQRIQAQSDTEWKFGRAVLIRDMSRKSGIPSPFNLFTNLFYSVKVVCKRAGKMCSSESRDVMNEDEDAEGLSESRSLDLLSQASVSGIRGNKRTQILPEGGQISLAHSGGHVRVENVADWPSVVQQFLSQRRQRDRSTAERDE
Large T antigen, sequence (P03070 whole entry): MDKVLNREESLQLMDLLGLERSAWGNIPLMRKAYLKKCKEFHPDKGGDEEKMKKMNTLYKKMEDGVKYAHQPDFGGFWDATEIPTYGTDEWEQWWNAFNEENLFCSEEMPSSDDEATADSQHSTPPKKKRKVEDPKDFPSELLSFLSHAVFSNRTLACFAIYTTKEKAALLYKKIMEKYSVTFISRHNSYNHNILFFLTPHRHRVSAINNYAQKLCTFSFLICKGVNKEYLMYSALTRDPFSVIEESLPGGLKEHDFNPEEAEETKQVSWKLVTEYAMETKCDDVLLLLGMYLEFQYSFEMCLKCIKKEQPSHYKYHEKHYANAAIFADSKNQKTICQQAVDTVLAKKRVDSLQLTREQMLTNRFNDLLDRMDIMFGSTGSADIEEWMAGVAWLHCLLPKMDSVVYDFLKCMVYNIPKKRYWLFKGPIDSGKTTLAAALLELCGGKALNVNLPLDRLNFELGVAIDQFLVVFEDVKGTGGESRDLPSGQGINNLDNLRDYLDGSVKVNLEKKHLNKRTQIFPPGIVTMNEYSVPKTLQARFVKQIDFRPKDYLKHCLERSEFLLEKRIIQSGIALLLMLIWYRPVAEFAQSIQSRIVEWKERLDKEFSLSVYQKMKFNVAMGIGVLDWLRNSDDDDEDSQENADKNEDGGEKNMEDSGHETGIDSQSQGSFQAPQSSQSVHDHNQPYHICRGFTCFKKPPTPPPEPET
Kallikrein-7, sequence (P49862 whole entry): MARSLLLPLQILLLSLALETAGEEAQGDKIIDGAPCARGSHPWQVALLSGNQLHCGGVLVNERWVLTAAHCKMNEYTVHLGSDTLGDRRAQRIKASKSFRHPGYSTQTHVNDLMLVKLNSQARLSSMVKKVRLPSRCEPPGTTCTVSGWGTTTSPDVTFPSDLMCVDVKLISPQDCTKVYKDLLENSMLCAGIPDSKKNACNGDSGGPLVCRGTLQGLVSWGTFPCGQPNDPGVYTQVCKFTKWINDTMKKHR
Tumor necrosis factor, sequence (P01375 whole entry): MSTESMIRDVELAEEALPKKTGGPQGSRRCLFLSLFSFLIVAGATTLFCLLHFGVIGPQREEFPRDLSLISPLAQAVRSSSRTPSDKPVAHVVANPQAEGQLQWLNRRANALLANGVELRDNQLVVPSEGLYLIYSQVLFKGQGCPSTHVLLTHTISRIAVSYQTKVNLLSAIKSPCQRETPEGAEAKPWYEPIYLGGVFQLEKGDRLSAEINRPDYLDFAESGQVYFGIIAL

Row | Structure (SMILES) | AC50 (CAAX prenyl protease 1) | AC50 (Trypsin) | AC50 (CAAX prenyl protease 2) | IC50 [4] | IC50 (Cannabinoid receptor 2 [5]) | EC50 (Cannabinoid receptor 2 [6]) | EC50 (Cannabinoid receptor 1 [7]) | EC50 [8] | IC50 (Cannabinoid receptor 1 [9]) | EC50 [10] | also measured
1 | CCC(C)NC(=O)c1cc2c(=O)n3cccc(C)c3nc2s1 (stereo not given) | 1.72 µM (active) | 28.5 µM (active) | 6.01 µM (active) | – | – | – | – | – | – | – | EC50 (Kallikrein-7): > 69.6 µM (inactive)
2 | Cc1ccc(NS(=O)(=O)c2ccc(C(=O)OCC(=O)Nc3cc(C)on3)cc2)cc1 | – | – | – | – | – | – | – | – | – | – | EC50 (Ion channel NompC): > 29.9 µM (inactive); EC50 (Mucolipin-3): > 29.9 µM (not active)
3 | Oc1ccc(-c2nc3ccccn3c2NCc2ccco2)cc1 | 4.39 µM (active) | 10.8 µM (active) | 6.52 µM (active) | – | – | – | – | – | – | – | IC50 (Caspase-3): 17.6 µM (active); IC50 (Large T antigen): 11.4 µM (active); IC50 [1]: 16 µM (active); IC50 [2]: 81.9 µM (active); IC50 [3]: 54.4 µM (active)
4 | CCOc1ccc(S(=O)(=O)N2CCOCC2)cc1NC(=O)c1ccc(N2CCCC2=O)cc1 | – | – | – | > 32 µM (inactive) | > 32 µM (inactive) | > 32 µM (inactive) | > 32 µM (inactive) | > 32 µM (inactive) | 4.98 µM (active) | > 32 µM (inactive) | –
5 | CC(=O)N1CCc2cc(S(=O)(=O)N3CCN(c4ccc([N+](=O)[O-])cc4)CC3)ccc21 | – | – | – | – | – | – | – | – | – | – | IC50 (Tumor necrosis factor): > 20 µM (inactive); IC50 (HEK293): > 20 µM (inactive)
6 | O=C(Nc1cc(S(=O)(=O)N2CCOCC2)ccc1OCC(F)(F)F)c1ccc(N2CCCC2=O)cc1 | – | – | – | > 32 µM (inactive) | > 32 µM (inactive) | > 32 µM (inactive) | > 32 µM (inactive) | > 32 µM (inactive) | > 32 µM (inactive) | > 32 µM (inactive) | –
